Values of other authors in US20110014269A1, “CIVAMIDE PATCH FOR LOCALIZED POST-INCISIONAL NEUROPATHIC PAIN” (WINSTON LABORATORIES, INC., priority 2009, published 2011).

Details: treatment of painful, inflammatory or allergic disorders

COc1cc(CNC(=O)CCCC/C=C\C(C)C)ccc1O [Civamide, cis-8-methyl-N-vanillyl-6-nonenamide]
burning and stinging relative to capsaicin's use: significantly less
